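Cultured in 96-well plates, cells were exposed to test compound for 48 hours across five concentrations. GI50 is the concentration that inhibits growth by half.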 Activity calls are given as the source filed them. Cut-off read from the data, not from the text of the source: active = GI50 up to about 1.1 µM and inactive = higher.
Experiments:
Assay in all cases: NCI-60 cell line screen, 48 h
HOP-92 = test system: HOP-92
M19-MEL = test system: M19-MEL
COLO 205 = test system: COLO 205
SF-295 = test system: SF-295
CCRF-CEM = test system: CCRF-CEM
SK-MEL-28 = test system: SK-MEL-28
HL-60 = test system: HL-60
NCI-H226 = test system: NCI-H226
HOP-62 = test system: HOP-62
DLD-1 = test system: DLD-1
A549 = test system: A549
IGROV-1 = test system: IGROV-1
HT-29 = test system: HT-29
SNB-19 = test system: SNB-19
LOX IMVI = test system: LOX IMVI
A498 = test system: A498
K562 = test system: K562
HCT-116 = test system: HCT-116
NCI-H460 = test system: NCI-H460
EKVX = test system: EKVX
KM12 = test system: KM12
HOP-18 = test system: HOP-18
UO-31 = test system: UO-31
OVCAR-4 = test system: OVCAR-4
UACC-62 = test system: UACC-62
786-0 = test system: 786-0
HCT-15 = test system: HCT-15
U-251 = test system: U-251
KM-20L2 = test system: KM-20L2
HCC 2998 = test system: HCC 2998
MOLT-4 = test system: MOLT-4
SF-268 = test system: SF-268
CAKI-1 = test system: CAKI-1
M14 = test system: M14
OVCAR-5 = test system: OVCAR-5
ACHN = test system: ACHN
RPMI-8226 = test system: RPMI-8226
OVCAR-8 = test system: OVCAR-8
SF-539 = test system: SF-539
NCI-H23 = test system: NCI-H23
SK-MEL-5 = test system: SK-MEL-5
DMS-114 = test system: DMS-114
SW-620 = test system: SW-620
TK-10 = test system: TK-10
SNB-78 = test system: SNB-78
NCI-H522 = test system: NCI-H522
Malme-3M = test system: Malme-3M
RXF 393 = test system: RXF 393
SN12C = test system: SN12C
SK-MEL-2 = test system: SK-MEL-2
SNB-75 = test system: SNB-75
SK-OV-3 = test system: SK-OV-3
LXFL 529 = test system: LXFL 529
RXF 631 = test system: RXF 631
UACC-257 = test system: UACC-257
OVCAR-3 = test system: OVCAR-3

For COc1cc(CC(=O)c2ccc3c(c2)OCO3)cc(OC)c1OC, the GI50 (HOP-92) was > 100 µM (inactive), the GI50 (M19-MEL) was > 100 µM (inactive) and the GI50 (COLO 205) was > 100 µM (inactive). The GI50 (SF-295) was > 100 µM (inactive), the GI50 (CCRF-CEM) was > 100 µM (inactive) and the GI50 (SK-MEL-28) was > 100 µM (inactive). For the same compound, the GI50 (HL-60) was > 100 µM (inactive), the GI50 (NCI-H226) was > 100 µM (inactive) and the GI50 (HOP-62) was > 100 µM (inactive). The GI50 (DLD-1) was > 100 µM (inactive), the GI50 (A549) was > 100 µM (inactive) and the GI50 (IGROV-1) was > 100 µM (inactive). For the same compound, the GI50 (HT-29) was > 100 µM (inactive), the GI50 (SNB-19) was > 100 µM (inactive) and the GI50 (LOX IMVI) was > 10 µM (inactive). For the same compound, the GI50 (A498) was > 100 µM (inactive), the GI50 (K562) was 93.5 µM (inactive) and the GI50 (HCT-116) was > 100 µM (inactive). The GI50 (NCI-H460) was 73.3 µM (inactive), the GI50 (EKVX) was > 100 µM (inactive) and the GI50 (KM12) was 68.4 µM (inactive). The GI50 (HOP-18) was > 100 µM (inactive), the GI50 (UO-31) was > 100 µM (inactive) and the GI50 (OVCAR-4) was > 100 µM (inactive). The GI50 (UACC-62) was > 100 µM (inactive), the GI50 (786-0) was > 100 µM (inactive) and the GI50 (HCT-15) was over 100 µM. For the same compound, the GI50 (U-251) was 46.6 µM (inactive), the GI50 (KM-20L2) was > 100 µM (inactive) and the GI50 (HCC 2998) was > 100 µM (inactive). For the same compound, the GI50 (MOLT-4) was > 100 µM (inactive), the GI50 (SF-268) was > 100 µM (inactive) and the GI50 (CAKI-1) was > 100 µM (inactive). For the same compound, the GI50 (M14) was > 100 µM (inactive), the GI50 (OVCAR-5) was > 100 µM (inactive) and the GI50 (ACHN) was > 100 µM (inactive). For the same compound, the GI50 (RPMI-8226) was 44 µM (inactive), the GI50 (OVCAR-8) was > 100 µM (inactive) and the GI50 (SF-539) was > 100 µM (inactive). For the same compound, the GI50 (NCI-H23) was > 100 µM (inactive), the GI50 (SK-MEL-5) was > 100 µM (inactive) and the GI50 (DMS-114) was 27.9 µM (inactive). For the same compound, the GI50 (SW-620) was 19.3 µM (inactive), the GI50 (TK-10) was > 100 µM (inactive) and the GI50 (SNB-78) was > 100 µM (inactive). The GI50 (NCI-H522) was > 100 µM (inactive), the GI50 (Malme-3M) was > 100 µM (inactive) and the GI50 (RXF 393) was 62.5 µM (inactive). For the same compound, the GI50 (SN12C) was > 100 µM (inactive), the GI50 (SK-MEL-2) was > 100 µM (inactive) and the GI50 (SNB-75) was > 100 µM (inactive). The GI50 (SK-OV-3) was > 100 µM (inactive), the GI50 (LXFL 529) was > 100 µM (inactive) and the GI50 (RXF 631) was 53.7 µM (inactive). The GI50 (UACC-257) was > 100 µM (inactive) and the GI50 (OVCAR-3) was > 100 µM (inactive).

— ChEMBL document CHEMBL1201862, “PubChem BioAssay data set” (2004)
